Measured values reported in patent US9809562B2, “NAT10 modulators for treating or preventing laminopathies, aging and cancer” (CAMBRIDGE ENTERPRISE LIMITED, priority 2014, dated 2017).
Counter-ions that a name gives are not always drawn. Like-named read-outs stand apart in the source and are kept apart here.

What was measured:
[1] = Pharmacokinetics assay of Remodelin in mice; type: in vivo; conditions: ICR mice; for half-life: read-out: half-life (T½) (converted)
Description: FIG. 17: Pharmacokinetics assay of Remodelin in mice. A) The pharmacokinetics of Remodelin was evaluated in ICR mice following IV at 1 mg/kg and PO at 5 mg/kg dose level. […] B) Details of the results obtained in the curves shown in A).

[2] = system: cells derived from patients with Emery-Dreifuss muscular dystrophy (EDMD); test: γH2AX in Emery-Dreifuss muscular dystrophy cells; type: cell-based, human
Source text: FIG. 12: Remodelin improves global cellular fitness of HGPS cells. A) NAT10 depletion in normal fibroblasts and HGPS AG11498 cells observed by western blotting, and showing that siNAT10 has no effect on Lamin A/C expression and processing. B) IF images showing nuclear shape improvement and decreased numbers of γH2AX foci in HGPS cells upon Remodelin treatment. Scale bars: 10 μm. C) Western Blotting analysis showing that Remodelin decreases γH2AX levels in both HGPS cell lines tested. D) IF images showing nuclear shape improvement and decreased intensity of γH2AX staining in Emery-Dreifuss muscular dystrophy cells (EDMD) upon Remodelin treatment. Scale bars: 10 μm. E) Western Blotting analysis showing that Remodelin decreases γH2AX levels in EDMD. F) Western blotting analysis showing the effect of Remodelin on the p53 and DNA damage signalling pathways in HGPS AG11498 cells. G) Representative IF images of H3K9me3 or SUN1 patterns quantified in H). Scale bars: 20 μm. […]
Total cell extracts were prepared by scraping cells in SDS lysis buffer (4% SDS, 20% glycerol, and 120 mM Tris-HCl, pH 6.8), boiling for 5 minutes at 95° C., followed by 10 strokes through a 25-gauge needle. […] Detection and quantification was performed with an imager (Odyssey; LI-COR Biosciences). […]

[3] = system: HGPS cells; test: Proliferation assay of HGPS cells (IncuCyte); type: cell-based, human; conditions: Remodelin 1 μM
Description: HGPS cells were plated at the same number in 24 well dishes. Next day, Remodelin (1 μM) or small molecule Compound 2 (1 to 10 μM), were added to the wells and plates were transferred into an IncuCyte microscope (Essen BioScience). Phase contrast pictures were acquired every 2 hours over several days. Percentage of cell confluence was calculated by the Cell Player integrated software (Essen BioScience) and analysed with GraphPad Prism® software.

[4] = system: microtubule network of cells; test: Microtubule network by immunofluorescence of α-Tubulin; type: cell-based
Description: Cells were washed with PBS and fixed for 20 minutes with 2% PFA in PBS. Cells were permeabilised for 5 minutes with PBS/0.2% Triton X-100, and blocked with PBS/0.2% Tween 20 (PBS-T) containing 5% BSA. Coverslips were incubated for 1 hour with primary antibodies and for 30 minutes with appropriate secondary antibodies coupled to Alexa Fluor 488 or 594 fluorophores (Life Technologies), before being incubated with 2 μg/ml DAPI. Pictures were acquired with a FluoView 1000 confocal microscope (Olympus). For high resolution imaging, z-stacks were acquired with a Deltavision PersonalDV (Applied Precision, 1024×1024 CoolSNAP HQ2 camera, z-stack of 0.2 μm interval) or with a Deltavision OMX V3 in conventional mode (Applied Precision, 512×512 Cascade II cameras (Photometrics), z-stack of 0.125 μm interval) both equipped with a 100× UPlanSApo/1.40 oil objective (Olympus) and controlled with SoftWoRx software (Applied Precision). Deconvolutions were then performed with SoftWoRx (Applied Precision) in conservative mode. The different channels were acquired sequentially.

[5] = system: cancer cell lines displaying reduced Lamin A/C expression; test: Nuclear morphology of cancer cell lines with reduced Lamin A/C expression (DAPI); type: cell-based, human
Source text: FIG. 2: Small molecule Compound 2 rescues nuclear shape defects in various Lamin A/C depleted cells. A) and B) Nuclear shape visualization by DAPI staining of HeLa (A) or RPE-1 (B) cells depleted for Lamin A/C (siLMNA) and treated with various KATi. Scale bars: 50 μm. C) and D) Cell Profiler quantification of nuclear circularity of HeLa (C) or RPE-1 (D) cells from DAPI staining as shown in A) and B) (means of three independent experiments with n>252±s.d). E) Cell cycle profile analysed by flow cytometry. PI: propidium iodide. F) Analysis of Lamin A/C expression levels in indicated cancer cell lines. Bottom panel: Image J quantification of Lamin A/C expression in cancer cells relative to normal RPE-1 cells. G) Representative pictures of DAPI staining showing nuclear shape improvement in low Lamin A/C expressing cancer cells after treatment with Compound 2. Scale bars: 20 μm.
U2OS and SaOS-2 osteosarcoma cells, HeLa cervical cancer cells, A431 melanoma cells, NCI-SNU5 gastric cancer cells, MRC-5 lung fibroblast cells and Werner syndrome patient-derived SV40 fibroblast cells were grown in Dulbecco's modified Eagle medium (DMEM, Sigma-Aldrich) supplemented with 10% fetal bovine serum (BioSera), 2 mM L-glutamine, 100 U per ml penicillin, 100 μg ml^−1 streptomycin. […] Cells were analysed 48 to 72 hours after transfection.

Structure (SMILES) | Oral exposure (AUC0-∞) ([1]; PO 5 mg/kg) [µg·h/mL] | clearance ([1]; mouse, plasma, IV 1 mg/kg) [L/h/kg] | half-life ([1]; mouse, plasma, IV 1 mg/kg) [min] | Tmax ([1]; mouse, plasma, PO 5 mg/kg) [min] | bioavailability ([1]; mouse, plasma, PO 5 mg/kg vs IV 1 mg/kg) [%] | half-life ([1]; mouse, plasma, PO 5 mg/kg) [min] | Cmax ([1]; mouse, plasma, PO 5 mg/kg, read-out: maximum plasma concentration (Cmax)) [µg/mL] | γH2AX levels in EDMD cells [2] | cell proliferation of HGPS cells [3] | microtubule network organization [4] | nuclear morphology of cancer cell lines [5]
N#Cc1ccc(-c2csc(NN=C3CCCC3)n2)cc1 [Compound 1, 4-(4-Cyanophenyl)-2-(2-cyclopentylidenehydrazinyl)thiazole] | 0.259 | 8.34 | 54.9 | 15 | 43.5 | 109 | 0.409 | decreased levels of γH2AX | enhanced cell proliferation capacity | striking reorganization | 
Clc1ccc(-c2csc(NN=C3CCCC3)n2)cc1 [Compound 2, 4-(4-Chlorophenyl)-2-(2-cyclopentylidenehydrazinyl)thiazole Hydrochloride Salt] |  |  |  |  |  |  |  |  |  |  | improved the nuclear morphology of several cancer cell lines
